Assay results published in patent US20200237786A1, “DIAGNOSIS AND TREATMENT OF ENDOMETRIOSIS BY SCREENING FOR L-FORM BACTERIA” (Soft Cell Biological Research, LLC, priority 2017, published 2020).

Columns and labels:
[1] = test system: Bacterial strains identified in Example 5; experiment: Antibiotic sensitivity by diffusion disk test of strains cultured from each subject; format: cell-based
Description: (§1) The disclosure is based, in part, on the recognition that certain L-form bacteria are sensitive to (e.g., not resistant to treatment with) specific antibiotic agents. In some embodiments, resistance to antibiotic agents is tested by a diffusion tab (diffusion disk) test, for example as described in Reller et al. (2009) Clinical Infectious Diseases, 49(11): 1749-1755. However, the skilled artisan recognizes that additional methods of antibiotic sensitivity testing may also be used.
(§2) Bacterial strains identified in Example 5 were tested for antibiotic sensitivity by a diffusion disk test. […] Resistance to Oxacillin was also observed in the M. maritypicum samples.

M. maritypicum = experiment: Antibiotic sensitivity by diffusion disk test, M. maritypicum; format: cell-based, Microbacterium maritypicum
Description: as §1, §2

[2] = strains cultured from subject 1609
[3] = strains cultured from subject 1642
[4] = strains cultured from subject 1644
[5] = strains cultured from subject 3016
[6] = strains cultured from subject 1538
[7] = strains cultured from subject 1619
[8] = strains cultured from subject 1636
[9] = strains cultured from subject 1842
[10] = strains cultured from subject 3025
[11] = strains cultured from subject 3164
[12] = strains cultured from subject 1545
[13] = strains cultured from subject 1985
[14] = strains cultured from subject 1905

In the case of CO/N=C(\C(=O)N[C@@H]1C(=O)N2C(C(=O)O)=C(COC(N)=O)CS[C@H]12)c1ccco1 [Cefuroxime], the “Resistance?” value [1, 2] is reported as “Cefuroxime”, the “Resistance?” value [1, 3] is reported as “Cefuroxime” and the “Most Effective Oral Antibiotic” value [1, 4] is reported as “Cefuroxime”. The “Resistance?” value [1, 5] was “Cefuroxime”.
In the case of C[C@@H](O)[C@H]1C(=O)N2C(C(=O)O)=C(S[C@@H]3CN[C@H](C(=O)N(C)C)C3)[C@H](C)[C@H]12 [Meropenem], the “Most Effective IV Antibiotic” value [1, 6] is reported as “Meropenem”, the “Most Effective IV Antibiotic” value [1, 2] is reported as “Meropenem” and the “Most Effective IV Antibiotic” value [1, 7] is reported as “Meropenem”. For the same compound, the “Most Effective IV Antibiotic” value [1, 8] was “Meropenem”, the “Most Effective IV Antibiotic” value [1, 9] was “Meropenem” and the “Most Effective IV Antibiotic” value [1, 10] was “Meropenem”. The “Most Effective IV Antibiotic” value ([1]; strains cultured from subject 3104) was “Meropenem” and the “Most Effective IV Antibiotic” value [1, 11] was “Meropenem”.
In the case of Cc1ncc([N+](=O)[O-])n1CCO [Metronidazole], the “resistance observed for M. maritypicum” value (M. maritypicum; in the majority of samples) is reported as “resistance”, the “Resistance?” value [1, 6] is reported as “Metronidazole” and the “Resistance?” value [1, 12] is reported as “Metronidazile,”. The “Resistance?” value [1, 2] was “Metronidazole,”, the “Resistance?” value [1, 7] was “Metronidazole,” and the “Resistance?” value [1, 8] was “Metronidazole,”. The “Resistance?” value [1, 3] was “Metronidazole,”, the “Resistance?” value [1, 4] was “Metronidazole,” and the “Resistance?” value ([1]; strains cultured from subject 1661) was “Metronidazole,”. For the same compound, the “Resistance?” value [1, 9] was “Metronidazole,”, the “Resistance?” value [1, 13] was “Metronidazole” and the “Resistance?” value [1, 5] was “Metronidazole,”. For the same compound, the “Resistance?” value [1, 11] was “Metronidazole”.
In the case of Cc1onc(-c2ccccc2)c1C(=O)N[C@@H]1C(=O)N2[C@@H]1SC(C)(C)[C@@H]2C(=O)O [Oxacillin], the “resistance observed in the M. maritypicum samples” value (M. maritypicum; M. maritypicum samples) is reported as “Resistance”, the “Resistance?” value [1, 12] is reported as “Oxacillin” and the “Resistance?” value [1, 2] is reported as “Oxaillin”. For the same compound, the “Resistance?” value [1, 7] was “Oxacillin”, the “Resistance?” value [1, 8] was “Oxacillin” and the “Resistance?” value [1, 3] was “Oxacillin”. The “Resistance?” value [1, 4] was “Oxacillin”, the “Resistance?” value [1, 9] was “Oxacillin” and the “Resistance?” value [1, 5] was “Oxacilin”. The “Resistance?” value [1, 10] was “Oxacillin”.
In the case of Amoxiclav, the “Most Effective Oral Antibiotic” value [1, 6] is reported as “Amoxiclav”, the “Resistance?” value [1, 3] is reported as “Amoxiclav” and the “Most Effective Oral Antibiotic” value ([1]; strains cultured from subject 1888) is reported as “Amoxiclav”. For the same compound, the “Most Effective Oral Antibiotic” value [1, 14] was “Amoxiclav,”, the “Most Effective Oral Antibiotic” value [1, 5] was “Amoxiclav” and the “Most Effective Oral Antibiotic” value [1, 10] was “Amoxiclav”.
In the case of Penicillin, the “Most Effective Oral Antibiotic” value [1, 14] is reported as “Penicillin” and the “Resistance?” value [1, 5] is reported as “Penicillin”.
With Rifapin the “Most Effective Oral Antibiotic” value [1, 13] was “Rifapin”.
For Sulfa-Trimeth, the “Resistance?” value [1, 12] was “Sulfa-”, the “Resistance?” value [1, 3] was “Sulfa-Trimeth,” and the “Resistance?” value [1, 5] was “Sulfa-Trimeth,”.
